In patent publication US12144350B2, “Heterocyclic compound and harmful arthropod control composition containing same” (SUMITOMO CHEMICAL COMPANY, LIMITED, priority 2019, dated 2024):

What was measured:
Type in all cases: in vivo
[1] = system: cotton aphids (Aphis gossypii); experiment: Test method 1: diluted solution sprayed on cucumber seedlings infested with cotton aphids; details: 500 ppm, spray 10 mL/seedling on cucumber, 5 days after spraying, 25° C.
Method: (§1) Next, Test Examples are used to show effects of the Present compounds on harmful arthropods. In the following Test Examples, the tests were carried out at 25° C.
(§2) Each test compound is formulated according to the method described in the Formulation Example 5 to obtain each formulation, and water containing Sindaine (registered trademark) (0.03% by volume) is added thereto to prepare a diluted solution containing a prescribed concentration of each test compound.
Cucumber (Cucumis sativus) seedlings (on the developmental stage of the second true leaf) are planted in a container and approximately 30 cotton aphids (Aphis gossypii) (all stages of life) are released onto the cucumber seedlings. After 1 day, each of said diluted solutions is sprayed into the seedlings in a ratio of 10 mL/seedling. After additional 5 days, the number of the surviving insects is examined and the controlling value is calculated by the following equation. Controlling value (%)={1−(Cb×Tai)/(Cai×Tb)}×100 wherein the symbols in the equation represent the following meanings.
(§3) Cb: Number of the test insects in non-treated area;
Cai: Number of the surviving insects at the time of the investigation in non-treated area; Tb: Number of the test insects in treated area;
(§4) Tai: Number of the surviving insects at the time of the investigation in treated area; […]

[2] = system: cotton aphids (Aphis gossypii); experiment: Test method 2: diluted solution irrigated into plant foot of cucumber seedlings, cotton aphids released after 7 days; details: 1000 ppm, irrigation into plant foot 5 mL/seedling, counted after additional 6 days, 25° C.
Method: as §1
Each test compound is formulated according to the method described in the Formulation Example 5 to obtain each formulation, and water is added thereto to prepare a diluted solution containing a prescribed concentration of each test compound.
Cucumber seedlings (on the developmental stage of the second true leaf) are planted in a container, and each of said diluted solutions is irrigated into the plant foot in a ratio of 5 mL/seedlings. After 7 days, approximately 30 cotton aphids (Aphis gossypii) (all stages of life) are released onto the surfaces of leaves of the cucumber seedlings. After additional 6 days, the number of the surviving insects is examined and the controlling value is calculated by the following equation. Controlling value (%)={1−(Cb×Tai)/(Cai×Tb)}×100 wherein the symbols in the equation represent the following meanings.
as §3
Cai: Number of the surviving insects at the time of the investigation in non-treated area;
Tb: Number of the test insects in treated area;
as §4

[3] = system: cotton worm (Spodoptera litura); experiment: Test method 3: sprayed cabbage seedlings, 3rd instar larvae of cotton worm; details: 500 ppm, spray 20 mL/seedling on cabbage, after 5 days, 25° C.
Method: as §1, §2
(§5) Cabbage (Brassicae oleracea) seedlings (on the developmental stage of the second to third true leaf) are planted in a container, and each of said diluted solutions is sprayed into the seedlings in a ratio of 20 mL/seedlings. Thereafter, the stem and leaf of the seedlings are cut out, and placed into a container lined with a filter paper. Five (5) the 3rd instar larvae of cotton worm (Spodoptera litura) are released into the container. After 5 days, the number of the surviving insects is counted, and the mortality of insects is calculated by the following equation. Mortality (%)=(1−Number of surviving insects/5)×100

[4] = system: diamondback moth (Plutella xylostella); experiment: Test method 4: sprayed cabbage seedlings, 3rd instar larvae of diamondback moth; details: 500 ppm, spray 20 mL/seedling on cabbage, after 5 days, 25° C.
Method: as §1, §2
as §5, with “Cabbage” for “Cabbage (Brassicae oleracea)”, “diamondback moth (Plutella xylostella)” for “cotton worm (Spodoptera litura)”

[5] = system: western corn rootworm (Diabrotica virgifera virgifera); experiment: Test method 5: corn seedlings immersed in diluted solution, 2nd instar larvae of western corn rootworm; details: 500 ppm, corn seedlings immersed 30 seconds, after 5 days, 25° C.
Method: as §1
Each test compound is dissolved into a mixed solution (50 μL) of polyoxyethylene sorbitan mono-cocoate and acetone (at a volume ratio of polyoxyethylene sorbitan mono-cocoate:acetone=5:95) per 1 mg of the test compound. Water containing Sindaine (registered trademark) (0.03% by volume) is added thereto to prepare a diluted solution containing a prescribed concentration of each test compound.
Young seedlings of corns (Zea mays) are immersed into each of said diluted solutions for 30 seconds. Thereafter, two of said seedlings are placed into a petri dish (diameter: 90 mm), and 10 the 2nd instar larvae of western corn rootworm (Diabrotica virgifera virgifera) are released into the dish. After 5 days, the number of the dead insects is counted, and the mortality of insects is calculated by the following equation. Mortality (%)=(Number of dead insects/10)×100

Compound: CCS(=O)(=O)c1c(-n2ccn3nc(C(F)(F)F)cc3c2=O)nc2ccc(C(F)(F)F)cn12 [compound 2]
- controlling value [1]: ≥ 90%
- controlling value [2]: ≥ 90%
- mortality [3]: ≥ 80%
- mortality [4]: ≥ 80%
- mortality [5]: ≥ 80%
